From PubChem BioAssay AID1259407 (Chemical Carcinogenesis Research Information System (CCRIS), 2018)
The source made the active and inactive calls. No rule for the calls is given here.

Test system: CCRIS mutagenicity, Ames/micronucleus/aberration tests
Experiment: CCRIS mutagenicity studies

SMILES: CCOS(C)(=O)=O
- mutagenic call (End Point: IN VITRO MICRONUCLEUS, Test System: CHL/IU CELLS, Metabolic Activation: NONE): active; positive
- mutagenic call (End Point: IN VITRO MICRONUCLEUS, Test System: V79 CELLS, Metabolic Activation: NONE): active; positive
- mutagenic call (End Point: In vitro micronucleus, Test System: Chinese Hamster Ovary (CHO-WBL) cells, Metabolic Activation: None): active; positive (p<0.01)
- mutagenic call (End Point: In vivo micronucleus, Test System: Micronucleated hepatocytes, Species: Rat, Strain/Sex: F344/Male, Route: Intraperitoneal): inactive; negative
- mutagenic call (End Point: In vivo micronucleus, Test System: Micronucleated hepatocytes, Species: Rat, Strain/Sex: F344/Male, Route: Oral): inactive; negative
- mutagenic call (Test System: AMES SALMONELLA TYPHIMURIUM, Strain/Indicator: TA98, Metabolic Activation: NONE, Method: SPIRAL ASSAY): inactive; negative
- mutagenic call (Test System: AMES SALMONELLA TYPHIMURIUM, Strain/Indicator: TA98, Metabolic Activation: NONE, Method: STANDARD PLATE): inactive; negative
- mutagenic call (Test System: AMES SALMONELLA TYPHIMURIUM, Strain/Indicator: TA98, Metabolic Activation: RAT, LIVER, S-9, AROCLOR 1254, Method: SPIRAL ASSAY): active; positive
- mutagenic call (Test System: AMES SALMONELLA TYPHIMURIUM, Strain/Indicator: TA100, Metabolic Activation: NONE, Method: SPIRAL ASSAY): active; positive
- mutagenic call (Test System: AMES SALMONELLA TYPHIMURIUM, Strain/Indicator: TA100, Metabolic Activation: NONE, Method: STANDARD PLATE): active; positive
- mutagenic call (Test System: AMES SALMONELLA TYPHIMURIUM, Strain/Indicator: TA100, Metabolic Activation: RAT, LIVER, S-9, AROCLOR 1254, Method: SPIRAL ASSAY): inactive; negative
- mutagenic call (Test System: AMES SALMONELLA TYPHIMURIUM, Strain/Indicator: TA100, Metabolic Activation: RAT, LIVER, S-9, AROCLOR 1254, Method: STANDARD PLATE): active; positive
- mutagenic call (Test System: AMES SALMONELLA TYPHIMURIUM, Strain/Indicator: TA1535, Metabolic Activation: NONE, Method: SPIRAL ASSAY): active; positive
- mutagenic call (Test System: AMES SALMONELLA TYPHIMURIUM, Strain/Indicator: TA1535, Metabolic Activation: NONE, Method: STANDARD PLATE): active; positive
- mutagenic call (Test System: AMES SALMONELLA TYPHIMURIUM, Strain/Indicator: TA1535, Metabolic Activation: RAT, LIVER, S-9, AROCLOR 1254, Method: SPIRAL ASSAY): active; positive
- mutagenic call (Test System: AMES SALMONELLA TYPHIMURIUM, Strain/Indicator: TA1535, Metabolic Activation: RAT, LIVER, S-9, AROCLOR 1254, Method: STANDARD PLATE): active; positive
- mutagenic call (Test System: AMES SALMONELLA TYPHIMURIUM, Strain/Indicator: TA1537, Metabolic Activation: NONE, Method: SPIRAL ASSAY): inactive; negative
- mutagenic call (Test System: AMES SALMONELLA TYPHIMURIUM, Strain/Indicator: TA1537, Metabolic Activation: NONE, Method: STANDARD PLATE): active; positive
- mutagenic call (Test System: AMES SALMONELLA TYPHIMURIUM, Strain/Indicator: TA1537, Metabolic Activation: RAT, LIVER, S-9, AROCLOR 1254, Method: SPIRAL ASSAY): inactive; negative
- mutagenic call (Test System: AMES SALMONELLA TYPHIMURIUM, Strain/Indicator: TA1537, Metabolic Activation: RAT, LIVER, S-9, AROCLOR 1254, Method: STANDARD PLATE): active; positive
- mutagenic call (Test System: AMES SALMONELLA TYPHIMURIUM, Strain/Indicator: TA1538, Metabolic Activation: RAT, LIVER, S-9, AROCLOR 1254, Method: STANDARD PLATE): active; positive
- mutagenic call (Test System: AMES SALMONELLA TYPHIMURIUM, Strain/Indicator: YG7100, Metabolic Activation: NONE, Method: PREINCUBATION): inactive; negative
- mutagenic call (Test System: AMES SALMONELLA TYPHIMURIUM, Strain/Indicator: YG7104, Metabolic Activation: NONE, Method: PREINCUBATION): active; positive
- mutagenic call (Test System: AMES SALMONELLA TYPHIMURIUM, Strain/Indicator: YG7108, Metabolic Activation: NONE, Method: PREINCUBATION): active; positive
- mutagenic call (Test System: AMES SALMONELLA TYPHIMURIUM, Strain/Indicator: YG7112, Metabolic Activation: NONE, Method: PREINCUBATION): active; positive
- mutagenic call (Test System: AMES SALMONELLA TYPHIMURIUM, Strain/Indicator: YG7113, Metabolic Activation: NONE, Method: PREINCUBATION): active; positive
- mutagenic call (Test System: AMES SALMONELLA TYPHIMURIUM, Strain/Indicator: YG7119, Metabolic Activation: NONE, Method: PREINCUBATION): inactive; negative
- mutagenic call (Test System: CHINESE HAMSTER OVARY, Strain/Indicator: CHO-K1-BH4 (HGPRT)/6-THIOGUANINE, Metabolic Activation: NONE, Method: LIQUID SUSPENSION): active; positive
- mutagenic call (Test System: CHINESE HAMSTER OVARY, Strain/Indicator: CHO-K1-BH4 (HGPRT)/6-THIOGUANINE, Metabolic Activation: NONE, Method: SUSPENSION/PLATE): active; positive
- mutagenic call (Test System: CHINESE HAMSTER OVARY, Strain/Indicator: CHO-K1-BH4 (HGPRT), Metabolic Activation: NONE, Method: MONOLAYER): active; positive
- mutagenic call (Test System: CHINESE HAMSTER OVARY, Strain/Indicator: CHO-K1-BH4 (HGPRT), Metabolic Activation: NONE, Method: SUSPENSION/PLATE): active; positive
- mutagenic call (Test System: CHINESE HAMSTER V-79, Strain/Indicator: V-79 (HGPRT)/6-THIOGUANINE, Metabolic Activation: NONE): active; positive
- mutagenic call (Test System: CHINESE HAMSTER V-79, Strain/Indicator: V-79 (HPRT)/6-THIOGUANINE, Metabolic Activation: NONE, Method: FLUCTUATION TEST): active; positive
- mutagenic call (Test System: CHINESE HAMSTER V-79, Strain/Indicator: V-79-MZ (HPRT)/6-THIOGUANINE, Metabolic Activation: NONE): active; positive
- mutagenic call (Test System: CHINESE HAMSTER V-79, Strain/Indicator: V-79-UL (HPRT)/6-THIOGUANINE, Metabolic Activation: NONE): active; positive
- mutagenic call (Test System: CHINESE HAMSTER V-79, Strain/Indicator: V-79/6-THIOGUANINE, Metabolic Activation: NONE, Method: FLASK ASSAY): active; positive
- mutagenic call (Test System: CHINESE HAMSTER V-79, Strain/Indicator: V-79/6-THIOGUANINE, Metabolic Activation: NONE, Method: LIQUID SUSPENSION): active; positive
- mutagenic call (Test System: CHINESE HAMSTER V-79, Strain/Indicator: V-79/6-THIOGUANINE, Metabolic Activation: NONE, Method: STANDARD PLATE): active; positive
- mutagenic call (Test System: CHINESE HAMSTER V-79, Strain/Indicator: V-79/6-THIOGUANINE, Metabolic Activation: NONE, Method: SUSPENSION/PLATE): active; positive
- mutagenic call (Test System: CHINESE HAMSTER V-79, Strain/Indicator: V-79/8-AZAGUANINE, Metabolic Activation: NONE, Method: STANDARD PLATE): active; positive
- mutagenic call (Test System: CHINESE HAMSTER V-79, Strain/Indicator: V-79/8-AZAGUANINE, Metabolic Activation: NONE, Method: SUSPENSION/PLATE): active; positive
- mutagenic call (Test System: CHINESE HAMSTER V-79, Strain/Indicator: V-79/OUABAIN, Metabolic Activation: NONE, Method: STANDARD PLATE): active; positive
- mutagenic call (Test System: CHINESE HAMSTER V-79, Strain/Indicator: V-79/OUABAIN, Metabolic Activation: NONE, Method: SUSPENSION/PLATE): active; positive
- mutagenic call (Test System: CHO/HGPRT, Strain/Indicator: CHO-K1-BH4, Metabolic Activation: MOUSE, IN VIVO, Method: HOST-MEDIATED): active; positive
- mutagenic call (Test System: E. COLI, Strain/Indicator: WP2, Metabolic Activation: NONE, Method: STANDARD PLATE): active; positive
- mutagenic call (Test System: E. COLI, Strain/Indicator: WP2, Metabolic Activation: RAT, LIVER, S-9, AROCLOR 1254, Method: STANDARD PLATE): active; positive
- mutagenic call (Test System: E. COLI, Strain/Indicator: WP2 UVRA, Metabolic Activation: HAMSTER, LIVER, S-9, AROCLOR 1254, Method: STANDARD PLATE): inactive; negative
- mutagenic call (Test System: E. COLI, Strain/Indicator: WP2 UVRA, Metabolic Activation: HAMSTER, LIVER, S-9, Method: STANDARD PLATE): inactive; negative
- mutagenic call (Test System: E. COLI, Strain/Indicator: WP2 UVRA, Metabolic Activation: MOUSE, LIVER, S-9, AROCLOR 1254, Method: STANDARD PLATE): inactive; negative
- mutagenic call (Test System: E. COLI, Strain/Indicator: WP2 UVRA, Metabolic Activation: MOUSE, LIVER, S-9, Method: STANDARD PLATE): inactive; negative
- mutagenic call (Test System: E. COLI, Strain/Indicator: WP2 UVRA, Metabolic Activation: RAT, LIVER, S-9, Method: STANDARD PLATE): inactive; negative
- mutagenic call (Test System: MOUSE LYMPHOMA, Strain/Indicator: L5178Y (HGPRT)/6-THIOGUANINE, Metabolic Activation: NONE, Method: SUSPENSION/PLATE): active; positive
- mutagenic call (Test System: MOUSE LYMPHOMA, Strain/Indicator: L5178Y (TK+/TK-)/TRIFLUOROTHYMIDINE, Metabolic Activation: NONE, Method: SUSPENSION/PLATE): active; positive
- mutagenic call (Test System: MOUSE LYMPHOMA, Strain/Indicator: L5178Y (TK+/TK-), Metabolic Activation: NONE, Method: FLUCTUATION TEST): active; positive
- mutagenic call (Test System: MOUSE LYMPHOMA, Strain/Indicator: L5178Y (TK+/TK-), Metabolic Activation: NONE, Method: IN SITU): active; positive
- mutagenic call (Test System: MOUSE LYMPHOMA, Strain/Indicator: L5178Y (TK+/TK-), Metabolic Activation: NONE, Method: LIQUID SUSPENSION): active; positive
- mutagenic call (Test System: MOUSE LYMPHOMA, Strain/Indicator: L5178Y (TK+/TK-), Metabolic Activation: RAT, LIVER, S-9, AROCLOR 1254, Method: SUSPENSION/PLATE): active; positive
- mutagenic call (Test System: UDS HUMAN CELLS, Strain/Indicator: THY INCORP (NON-S-PHASE), Metabolic Activation: NONE, Method: LIQUID SCINTILLATION COUNTING): active; positive
- mutagenic call (Test System: UDS HUMAN LYMPHOCYTES, Strain/Indicator: THY INCORP (NON-S-PHASE), Metabolic Activation: NONE, Method: LIQUID SCINTILLATION COUNTING): active; positive
- mutagenic call (Test System: UDS RODENT PRIMARY CELLS, Strain/Indicator: THY INCORP (NON-S-PHASE), Metabolic Activation: NONE, Method: LIQUID SCINTILLATION COUNTING): active; positive
